According to publication PMC9043238, “Evaluation of Potential DnaK Modulating Proline-Rich Antimicrobial Peptides Identified by Computational Screening” (Frontiers in Chemistry, 2022):
“Also recorded” adds a separate entry of the source.

Legend:
DnaK [1] = conditions: peptide 300 µM; 0.3 µM DnaK; 20 mM TRIS, 150 mM KCl, 5 mM MgCl2, 1 mM ATP, pH 7.5; 1 h at 37°C; Malachite Green, A620; result in words (Figure 1)
Method: Peptides were assessed for their capacity to inhibit the ATPase activity of DnaK by a colorimetric assay. Peptide at 300 µM concentration were assayed in 100 µl format where each reaction contained 0.3 µM of DnaK in DnaK assay buffer (20 mM TRIS, 150 mM KCl, 5 mM MgCl2, 1 mM ATP, pH 7.5). After 60 min, 20 µl samples were taken (3 x per reaction) for assessment by Malachite Green Phosphate assay kit (Sigma—MAK307). The samples were added to 80 µl of Milli-Q water in a 96 well plate, before adding 20 µl of staining solution, and incubated at room temperature for 30 min before measuring A620 on a plate reader ([Zahn et al., 2013]). A negative control was included for each peptide where the same assay conditions are used in the absence of DnaK. The relative activity of DnaK in the presence of each of the putative DnaK binding peptides was assessed using the following equation: DnaKacitivity %= (OD620 sample−OD620 negative control)/(OD620 positive control−OD620 negative control) × 100
We selected four potential PrAMPs from the list of newly identified PrAMPs for evaluation. […] Each was chemically synthesized, purified, and exchanged into HCl salt prior to investigation of antimicrobial properties (Supplementary Information, Supplementary Figure S1). The ability of the potential PrAMPs to modulate the activity of DnaK was assessed at 300 µM in vitro through a colorimetric assay with a known binder of DnaK, oncocin, as a positive control peptide (Figure 1).
Each was incubated with DnaK for 1 h at 37°C and the free phosphate generated was detected with a Malachite Green-based stain. Activities are reported in % activity relative to DnaK positive and DnaK negative samples with constraints at 0% activity. All peptides were assayed at 300 µM. One-way ANOVA followed by Dunnett’s multiple comparisons test was performed to compare the control (DnaK) to each of the peptides, p < 0.05 (*) and p < 0.001 (**) are indicated.

[2] = system: Escherichia coli ATCC 25922 and E. coli BAA 3051; assay: Antibacterial MIC assay, E. coli; assay type: cell-based; conditions: MHB, serial dilution up to 128 µM, 6 h growth, OD read-out, MIC = concentration at which growth surpassed 10%; result in words
Method: (§1) For the antimicrobial assays, the strains used were as follows: Staphylococcus aureus ATCC 29213, Escherichia coli ATCC 25922 and E. coli BAA 3051.
(§2) Peptides were assessed for their MIC against various bacterial strains. Peptides were serially diluted at two x final concentration across a 96 well plate with the final well containing no peptide and control lanes of no antibacterial agent, and lanes of no bacteria or antibacterial agent. All dilutions were in sterile MHB. Each bacterial strain was grown overnight before inoculation of a fresh culture in the morning of assay, the culture was allowed to grow until OD600 = ∼1.0 before dilution to achieve 2 × 10^6 CFU/ml based of the equations 2e+7e^(2.9218∗OD600) for E. coli and 2e+7e^(2.5537∗OD600). Bacteria were added 1:1 to wells containing the serially diluted peptide(s) and were allowed to grow for 6 h, in regards to E. coli, or 24 h, in regards to S. aureus, before measuring OD620 on a plate reader. Bacterial growth per well was determined using the following equation: Bacterial growth %= (OD600 sample−OD600 negative control)/(OD600 positive control−OD600 negative control)×100
(§3) The MIC breakpoint was determined using GraphPad PRISM observing for the concentration at which growth surpassed 10%.
FIGURE 2 Minimum inhibitory concentration of potential PrAMPs. Each of the potential PrAMPs were assayed for MIC against E. coli ATCC 25922 (A), E. coli BACC 3051 (B), and S. aureus 29213 (C), up to 128 µM in MHB media.

[3] = system: Staphylococcus aureus ATCC 29213; assay: Antibacterial MIC assay, S. aureus; assay type: cell-based; conditions: MHB, up to 128 µM, 24 h growth, OD read-out; result in words
Method: as §1, §2, §3
FIGURE 2 Minimum inhibitory concentration of potential PrAMPs. […]

E. coli ATCC 25922 = assay: MIC of peptide combinations (synergy); assay type: cell-based, Escherichia coli; conditions: equimolar combination with oncocin or P9, Figure 3
Method: as §2, §3
One potential reason is that these peptides are unable to access the cytoplasm of the cell. Consequently, the synergistic capacity of PP30, attacin-C, and antibacterial napin with oncocin or P9 was examined (Figure 3).
(A) MIC assessment of oncocin with/without antibacterial napin/PP30/attacin-C. (B) MIC assessment of P9 with/without antibacterial napin/PP30/attacin-C. Each peptide is present in equimolar concentration with the individual concentration shown in the X axis.

Bacillus subtilis = conditions: Gram-positive bacterium; ref Ngai and Ng, 2004; cited from earlier work
Method: (§4) It is interesting to note that the peptides tested which inhibit DnaK are in fact not antimicrobial at concentrations of 128 µM or less. This may be because the peptides act in vivo as part of a complex multi-peptide cocktail with synergistic effects.

E. coli = conditions: Gram-negative bacterium; ref Ngai and Ng, 2004; cited from earlier work
Method: as §4

DnaK [4] = conditions: ref Krizsan et al., 2014; cited from earlier work
Excerpt: Recently, we assessed a new set of criteria for PrAMPs and scanned the DRAMP database (http://dramp.cpu-bioinfor.org/) to detect novel PrAMPs based on similarity to known DnaK inhibitors ([Welch et al., 2020]). […] Here, we undertook screening of these putative new ...

bacterial membrane = conditions: ref Shen et al., 2010; cited from earlier work
Excerpt: This dual mode of action of PP30, membrane lysis and DnaK […], is novel and unreported for other native PrAMPs.

PAQPFRFPKHPQGPQTRPPI [Antibacterial napin, predicted PrAMP from the DRAMP database, chemically synthesized 20-residue peptide]
Effect on DnaK activity (ATP hydrolysis), % activity relative to DnaK positive and negative samples (DnaK [1]): inhibit DnaK activity | Antimicrobial activity (MIC assessment) against E. coli [2]: inactive; also recorded: lack of direct antimicrobial activity | Antimicrobial activity (MIC assessment) against S. aureus [3]: inactive | Synergy in combination treatment (MIC) (E. coli ATCC 25922): no synergistic effects | Activity against Bacillus subtilis (Bacillus subtilis): active | Activity against E. coli (E. coli): inactive

QRPYTQPLIYYPPPPTPPRIYRA [Attacin-C, predicted PrAMP from the DRAMP database, chemically synthesized 23-residue peptide]
Effect on DnaK activity (ATP hydrolysis), % activity relative to DnaK positive and negative samples (DnaK [1]): inhibit DnaK activity | Antimicrobial activity (MIC assessment) against E. coli [2]: lack of direct antimicrobial activity | Synergy in combination treatment (MIC) (E. coli ATCC 25922): no synergistic effects

RFIPPILRPPVRPPFRPPFRPPFRPPPIIRFFGG [P9, predicted PrAMP from the DRAMP database, chemically synthesized 34-residue peptide]
Effect on DnaK activity (ATP hydrolysis), % activity relative to DnaK positive and negative samples (DnaK [1]): increases the ATP hydrolysis of DnaK | Antimicrobial activity (MIC assessment) against E. coli [2]: potent antimicrobial activity

VDKPPYLPRPRPPRRIYNR [Oncocin]
DnaK binding (DnaK [4]): DnaK binder

YVPPVQKPHPNGPKFPTFP [PP30, predicted PrAMP from the DRAMP database, chemically synthesized 19-residue peptide]
Effect on DnaK activity (ATP hydrolysis), % activity relative to DnaK positive and negative samples (DnaK [1]): inhibit DnaK activity | Antimicrobial activity (MIC assessment) against E. coli [2]: has not however resulted in observable MICs; also recorded: lack of direct antimicrobial activity | Synergy in combination treatment (MIC) (E. coli ATCC 25922): no synergistic effects | Membrane-lytic action (bacterial membrane): membrane-lytic
